From patent US12312359B2 (Vitae Pharmaceuticals, LLC, priority 2016, dated 2025)

Key:
[1] = tested on: human acute monocytic leukemia cell line MV-4-11; experiment: Assay 2: cell proliferation assay (ATP quantitation, CellTiter-Glo), MV-4-11; format: cell-based; conditions: MV-4-11 cells
Method: Potencies of inhibitor compounds against cell proliferation was assessed against the human acute monocytic leukemia cell line MV-4-11 (ATCC® CRL-9591™) based on ATP quantitation. MV-4-11 cells or toxicity control HL-60 cells (ATCC® CCL-240™) were incubated in 96-well tissue culture plates (1.67×10^4 cells in 200 μL culture media containing 10% FBS per well) with or without test compound for 72 h at 37° C., 5% CO2. After incubation, each well was mixed by pipetting and 95 μL from each well was transferred to a well in 96-well black OptiPlate® plates (PerkinElmer). An equal volume of CellTiter-Glo® Luminescent Cell Viability Assay reagent (Promega) was added to each well, followed by mixing for 5 min on an orbital plate shaker. Luminescence was measured on a Wallac EnVision 2104 Multilabel Reader (PerkinElmer) to quantitate ATP.

[2] = target: T1, biotinylated wild-type menin and MLL-AF9 fusion protein (menin/MLL binding) (Homo sapiens, UniProt O00255); experiment: Assay 1: menin/MLL binding AlphaLISA assay, wild-type menin; conditions: Table 30; column head does not say wild-type or mutated menin
T1 construct: made in house; host or cells: menin: E. coli; MLL-AF9-FLAG: HEK293 cells, used as cleared lysate
T1 sequence (O00255 1-610): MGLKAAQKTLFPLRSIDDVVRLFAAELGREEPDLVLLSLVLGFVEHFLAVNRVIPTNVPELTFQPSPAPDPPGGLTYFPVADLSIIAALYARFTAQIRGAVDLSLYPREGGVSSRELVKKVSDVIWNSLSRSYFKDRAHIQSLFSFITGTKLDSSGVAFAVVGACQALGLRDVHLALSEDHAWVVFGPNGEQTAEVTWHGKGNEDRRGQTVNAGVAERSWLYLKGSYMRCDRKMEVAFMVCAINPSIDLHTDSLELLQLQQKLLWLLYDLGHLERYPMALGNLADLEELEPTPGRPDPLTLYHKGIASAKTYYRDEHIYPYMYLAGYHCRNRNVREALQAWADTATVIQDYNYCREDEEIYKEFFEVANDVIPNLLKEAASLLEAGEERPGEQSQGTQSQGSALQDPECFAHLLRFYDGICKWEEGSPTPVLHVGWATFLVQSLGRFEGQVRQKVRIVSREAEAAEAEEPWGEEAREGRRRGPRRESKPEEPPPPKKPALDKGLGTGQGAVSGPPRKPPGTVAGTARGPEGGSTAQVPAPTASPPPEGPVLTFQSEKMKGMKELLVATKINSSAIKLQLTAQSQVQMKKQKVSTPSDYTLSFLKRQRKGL
Method: Potencies of inhibitor compounds against menin/MLL binding were assessed by AlphaLISA assay using biotinylated (1) wild-type menin or (2) mutated menin (described in Huang et al, 2012, Nature, 482, 542-546) and MLL-AF9 fusion protein bearing a FLAG epitope at its C-terminus. Menin proteins were expressed in E. coli and covalently modified with biotin using EZ-Link™ Sulfo-NHS-Biotin (ThermoFisher Cat.No. 21217) according to manufacturer's protocol. MLL1-1,396 fused to AF91-92 and the C-terminal FLAG peptide was expressed in HEK293 cells and used as a lysate cleared at 21,000×g for 10 min.
Compounds (2 μL of solutions in DMSO) were dispensed in white 96-well half-area plates (Corning Cat.No. 3693) and incubated for 30 min at RT with 5 nM biotinylated menin and appropriate amount of MLL-AF9-FLAG lysate in 40 μL of 50 mM Tris-HCl buffer pH 7.4 containing 5% (v/v) DMSO, 50 mM NaCl, 0.01% (w/v) bovine serum albumin (BSA) and 1 mM DTT. To this incubation mixture, 40 μL of AlphaLISA anti-FLAG acceptor (PerkinElmer Cat.No. AL112C) and streptavidin donor (PerkinElmer Cat.No. 6760002) beads (10 μg/mL each) was added and incubation continued at RT for 60 min. Alpha (amplified luminescent proximity homogeneous assay) signal was measured on an Envision multi-label plate reader at the end of the incubation. All steps were conducted under dim fluorescent light.
These percent inhibition values were regressed against compound concentrations in the assay using four parameter logit non-linear curve fitting (XLFit, IDBS). The IC50 values were derived from the curve fitting as inflection points on the dose-response curves and are set out in Table 30 below.

Row | Compound | EC50 ([1]; 72 h) [nM] | IC50 [2] [nM] | EC50 ([1]; Homo sapiens, MV4-11, 72 h) [nM]
1 | 2-((4-(7-(((1r,4r)-4- (3,3- dimethylureido)cyclo- hexyl) methyl)- 2,7-diazaspiro [3.5]nonan-2- yl)pyrimidin-5- yl)oxy)-5-fluoro- N,N-diisopropyl benzamide [Example 97] | 100 to 1000 | < 100 | –
2 | 5-((7-(5-(4-fluoro-2-(3-fluoro-3-methylbutyl)phenoxy) pyrimidin-4-yl)-2,7-diazaspiro[4.4]nonan-2-yl)methyl)-1H-benzo[d]imidazol-2(3H)-one [Example 35] | 100 to 1000 | < 100 | –
3 | CC(C)N(C(=O)c1cc(F)ccc1Oc1cncnc1N1CCC2(CCN(Cc3ccc4[nH]c(=O)[nH]c4c3)C2)C1)C(C)C (racemic) [Example 1, 5-fluoro-N,N-diisopropyl-2-((4-(7-((2-oxo-2,3-dihydro-1H-benzo[d]imidazol-5-yl)methyl)-2,7-diazaspiro[4.4]nonan-2-yl)pyrimidin-5-yl)oxy)benzamide] | – | < 100 | < 100
4 | CCN(C(=O)c1cc(F)ccc1Oc1cncnc1N1CCC2(CCN(Cc3ccc4[nH]c(=O)[nH]c4c3)C2)C1)C(C)C (racemic) [Example 2, N-ethyl-5-fluoro-N-isopropyl-2-((4-(7-((2-oxo-2,3-dihydro-1H-benzo[d]imidazol-5-yl)methyl)-2,7-diazaspiro[4.4]nonan-2-yl)pyrimidin-5-yl)oxy)benzamide] | – | < 100 | < 100
5 | Cn1c(-c2cc(F)ccc2Oc2cncnc2N2CCC3(CCN(Cc4ccc5[nH]c(=O)[nH]c5c4)C3)C2)c(C2CC2)ccc1=O (racemic) [Example 29, 5-((7-(5-(2-(3-cyclopropyl-1-methyl-6-oxo-1,6-dihydropyridin-2-yl)-4-fluorophenoxy)pyrimidin-4-yl)-2,7-diazaspiro[4.4]nonan-2-yl)methyl)-1,3-dihydro-2H-benzo[d]imidazol-2-one] | – | < 100 | < 100
6 | CN(C)C(=O)c1csc(N2CCC3(CCN(c4ncncc4Oc4ccc(F)cc4-c4ccc(C#N)cc4C4CC4)C3)C2)n1 (stereo not shown) [Example 58, 2-(7-(5-((4′-cyano-2′-cyclopropyl-5-fluoro-[1,1′-biphenyl]-2-yl)oxy)pyrimidin-4-yl)-2,7-diazaspiro[4.4]nonan-2-yl)-N,N-dimethylthiazole-4-carboxamide] | – | 100 to 1000 | –
7 | CC(C)c1ncncc1-c1cc(F)ccc1Oc1cncnc1N1CCC2(CCC(Cc3ccccc3)C2)C1 (stereo not shown) [Example 59, 7-benzyl-2-(5-(4-fluoro-2-(4-isopropylpyrimidin-5-yl)phenoxy)pyrimidin-4-yl)-2-azaspiro[4.4]nonane] | – | ≥ 1000 | –
8 | CC(C)N(C)C(=O)c1cc(F)ccc1Oc1cncnc1N1CCC2(CCN(Cc3cccc(N4CCOC4=O)c3)C2)C1 (stereo not shown) [Example 61, 5-fluoro-N-isopropyl-N-methyl-2-((4-(7-(3-(2-oxooxazolidin-3-yl)benzyl)-2,7-diazaspiro[4.4]nonan-2-yl)pyrimidin-5-yl)oxy)benzamide] | – | 100 to 1000 | –
9 | CCc1ccccc1-c1cc(F)ccc1Nc1cncnc1N1CCC2(CC1)CN(CC(C)(C)O)C2 [Example 71, 1-(7-(5-((2′-ethyl-5-fluoro-[1,1′-biphenyl]-2-yl)amino)pyrimidin-4-yl)-2,7-diazaspiro[3.5]nonan-2-yl)-2-methylpropan-2-ol] | – | < 100 | –
10 | CC(C)S(=O)(=O)Nc1cc(F)ccc1Oc1cncnc1N1CC2(CCN(C[C@H]3CC[C@H](NS(C)(=O)=O)CC3)CC2)C1 [Example 74, N-(5-fluoro-2-((4-(7-(((1r,4r)-4-(methylsulfonamido)cyclohexyl)methyl)-2,7-diazaspiro[3.5]nonan-2-yl)pyrimidin-5-yl)oxy)phenyl)propane-2-sulfonamide] | – | < 100 | –
11 | CCc1ccccc1-c1cc(F)ccc1Cc1cnccc1N1CC2(CN(CC3CCOCC3)C2)C1 [Example 78, 2-(3-((2′-ethyl-5-fluoro-[1,1′-biphenyl]-2-yl)methyl)pyridin-4-yl)-6-((tetrahydro-2H-pyran-4-yl)methyl)-2,6-diazaspiro[3.3]heptane] | – | 100 to 1000 | –
12 | CC(C)c1ncncc1-c1cc(F)ccc1Oc1cncnc1N1CCC2(CC(N3CCc4cc(F)ccc4C3)CO2)C1 (stereo not shown) [Example 157, 7-(5-(4-fluoro-2-(4-isopropylpyrimidin-5-yl)phenoxy)pyrimidin-4-yl)-3-(6-fluoro-3,4-dihydroisoquinolin-2(1H)-yl)-1-oxa-7-azaspiro[4.4]nonane] | – | < 100 | –
13 | CC(C)c1ncncc1-c1cc(F)ccc1Nc1cncnc1N1CC2(CN(CC3CCOCC3)C2)C1 [Example 244, N-(4-fluoro-2-(4-isopropylpyrimidin-5-yl)phenyl)-4-(6-((tetrahydro-2H-pyran-4-yl)methyl)-2,6-diazaspiro[3.3]heptan-2-yl) pyrimidin-5-amine] | – | < 100 | –
14 | CC(C)CN1CC2(CCN(c3ncncc3Nc3ccc(F)cc3-c3ccccc3OC(C)C)CC2)C1 [Example 245, N-(5-fluoro-2′-isopropoxy-[1,1′-biphenyl]-2-yl)-4-(2-isobutyl-2,7-diazaspiro[3.5]nonan-7-yl) pyrimidin-5-amine] | – | < 100 | –
15 | CC(C)CN1CC2(CCN(c3ncncc3Nc3ccc(F)cc3-c3ccccc3C(C)C)CC2)C1 [Example 246, N-(5-fluoro-2′-isopropyl-[1,1′-biphenyl]-2-yl)-4-(2-isobutyl-2,7-diazaspiro[3.5]nonan-7-yl) pyrimidin-5-amine] | – | < 100 | –
16 | CCc1ccccc1-c1cc(F)ccc1Nc1cncnc1N1CCC2(CC1)CN(CC(C)C)C2 [Example 247, N-(2′-ethyl-S-fluoro-[1,1′-biphenyl]-2-yl)-4-(2-isobutyl-2,7-diazaspiro[3.5]nonan-7-yl) pyrimidin-5-amine] | – | < 100 | –

The remaining lines, values ahead:

Row | EC50 ([1]; 72 h) [nM] | IC50 [2] [nM] | EC50 ([1]; Homo sapiens, MV4-11, 72 h) [nM] | Compound
17 | < 100 | – | – | CC(O)c1ccccc1-c1cc(F)ccc1Oc1cncnc1N1CCC2(CCN(Cc3ccc4[nH]c(=O)[nH]c4c3)C2)C1 (single isomer, unassigned) [Example 60B, 5-((7-(5-((5-fluoro-2′-(1-hydroxyethyl)-[1,1′-biphenyl]-2-yl)oxy)pyrimidin-4-yl)-2,7-diazaspiro[4.4]nonan-2-yl)methyl)-1H-benzo[d]imidazol-2(3H)-one]
18 | < 100 | – | – | CC(O)c1ccccc1-c1cc(F)ccc1Oc1cncnc1N1CCC2(CCN(Cc3ccc4[nH]c(=O)[nH]c4c3)C2)C1 (single isomer, unassigned) [Example 60C, 5-((7-(5-((5-fluoro-2′-(1-hydroxyethyl)-[1,1′-biphenyl]-2-yl)oxy)pyrimidin-4-yl)-2,7-diazaspiro[4.4]nonan-2-yl)methyl)-1H-benzo[d]imidazol-2(3H)-one]
19 | < 100 | – | – | CC(O)c1ccccc1-c1cc(F)ccc1Oc1cncnc1N1CCC2(CCN(Cc3ccc4[nH]c(=O)[nH]c4c3)C2)C1 (single isomer, unassigned) [Example 60D, 5-((7-(5-((5-fluoro-2′-(1-hydroxyethyl)-[1,1′-biphenyl]-2-yl)oxy)pyrimidin-4-yl)-2,7-diazaspiro[4.4]nonan-2-yl)methyl)-1H-benzo[d]imidazol-2(3H)-one]
20 | – | < 100 | – | CC(C)c1ccccc1-c1cc(F)ccc1Nc1cncnc1N1CCC2(CCN(Cc3ccc4[nH]c(=O)[nH]c4c3)C2)C1 (stereo not shown) [Example 243, 5-((7-(5-((5-fluoro-2′-isopropyl-[1,1′-biphenyl]-2-yl)amino)pyrimidin-4-yl)-2,7-diazaspiro [4.4]nonan-2-yl)methyl)-1,3-dihydro-2H-benzo[d]imidazol-2-one]
